We go through 8 compounds from paper PMC7617104 (Biochemical Journal, 2024).

Test [1] has as its target T1, p110γ (Homo sapiens, UniProt P48736).
T1 construct: made in house; host or cells: Sf9 insect cells (baculovirus)
Further details: method as in earlier work. The conditions noted are these: Table S1, rows marked #; ref S1; read-out: IC50 p110γ WT; cited from earlier work.

Test [2] concerns the target T2, PI3Kα^WT (Homo sapiens, UniProt P42336).
T2 construct: using full length PI3Kα^WT and PI3Kα^H1047R up to 1 μM; made in house; host or cells: Sf9 insect cells (baculovirus)
Put plainly: BLI membrane binding assay (immobilised liposomes). The conditions noted are these: for effect on P2pY-activated PI3Kα^WT membrane interaction (BLI wavelength shift): 1 µM PI3Kα^WT, 300 s, GSK2126458 4 µM, PIK-75 20 µM, 6 4 µM, 7 10 µM, GDC0032 10 µM, AS252424 10 µM, AMP-PNP 2 mM with 5 mM Mg2+; for Bmax (binding capacity) of PI3Kα^WT membrane interaction in presence of inhibitor: pY activated, inhibitor:protein 4:1, Mean ± SEM. The procedure:
BLI is a label-free dip-and-read method that uses wavelength changes in reflected incidental white light to report on changes in thickness of the lipid vesicles immobilised on a biosensor from protein binding.
(§1) BLI experiments were carried out with a BLItz® System (ForteBIO) using aminopropylsilane (APS) biosensors. The APS biosensors (ForteBIO #18-5045) were hydrated for 15–20 min in either Tris or HEPES liposome buffer. The program option used was Advanced Kinetics. Liposome membrane preparation was performed using a 0.5 mg/ml liposome solution of PIP2: PS: PE: PC: C: S (Avanti polar lipids) in the mass percentages of 5: 20: 45: 15: 10: 5. Liposomes without PIP2 were prepared as PS: PE: PC: C: S in the percentage of […]. Liposomes without PS were prepared as PIP2: PE: PC: C: S in the percentage of 5: 65: 15: 10: 5. […] P2pY and inhibitor, or DMSO only were also added to achieve a final protein concentration of 200 μg/ml, a pY concentration of 10 μM, and total DMSO content of 3%. The mixture was incubated at room temperature for 10 min prior to the protein association experiments. The membrane coated biosensors were first dipped in Buffer D containing 3% DMSO for 30 s to set an initial baseline, and transferred to the protein in the presence or absence of inhibitor. Protein binding was followed for 300 s, and then the biosensors were dipped in Buffer D with 3% DMSO again for 300 s for protein dissociation. […] PI3Kα^M1043I used 0.125, 0.25, 0.5, 1 and 1.57 µM. The results of liposome loading and protein association were then analysed and graphed using GraphPad Prism 6.
Target sequence in this assay (P42336 whole entry): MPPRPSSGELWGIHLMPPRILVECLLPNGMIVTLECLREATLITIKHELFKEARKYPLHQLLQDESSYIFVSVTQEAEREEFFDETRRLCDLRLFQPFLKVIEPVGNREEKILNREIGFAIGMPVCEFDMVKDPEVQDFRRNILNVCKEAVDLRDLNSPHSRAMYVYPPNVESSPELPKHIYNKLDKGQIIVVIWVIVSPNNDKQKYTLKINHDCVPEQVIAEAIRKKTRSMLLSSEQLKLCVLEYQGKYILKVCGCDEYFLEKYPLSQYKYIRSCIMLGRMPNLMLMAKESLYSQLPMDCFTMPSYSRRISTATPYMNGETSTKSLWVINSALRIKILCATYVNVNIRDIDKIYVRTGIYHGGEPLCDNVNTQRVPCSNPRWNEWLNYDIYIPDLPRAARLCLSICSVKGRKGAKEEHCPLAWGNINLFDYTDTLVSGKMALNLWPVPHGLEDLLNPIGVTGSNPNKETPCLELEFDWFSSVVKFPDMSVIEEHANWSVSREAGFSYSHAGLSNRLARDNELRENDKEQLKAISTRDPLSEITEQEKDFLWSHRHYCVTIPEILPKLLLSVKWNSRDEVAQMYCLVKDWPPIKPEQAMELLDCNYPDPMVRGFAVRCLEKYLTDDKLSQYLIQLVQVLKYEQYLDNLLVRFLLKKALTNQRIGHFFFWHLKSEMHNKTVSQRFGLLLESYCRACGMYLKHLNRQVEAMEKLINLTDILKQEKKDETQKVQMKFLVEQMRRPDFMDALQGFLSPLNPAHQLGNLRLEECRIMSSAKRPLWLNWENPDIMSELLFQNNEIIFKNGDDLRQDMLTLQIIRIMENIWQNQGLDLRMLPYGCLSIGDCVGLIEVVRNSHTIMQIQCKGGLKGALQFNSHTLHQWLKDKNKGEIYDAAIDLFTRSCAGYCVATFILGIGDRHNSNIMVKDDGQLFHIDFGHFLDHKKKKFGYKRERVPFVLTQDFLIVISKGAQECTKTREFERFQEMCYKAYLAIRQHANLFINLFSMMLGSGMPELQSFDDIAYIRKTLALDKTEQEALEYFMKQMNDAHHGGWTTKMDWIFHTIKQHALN
Target sequence in this assay (P27986 2-724 partner): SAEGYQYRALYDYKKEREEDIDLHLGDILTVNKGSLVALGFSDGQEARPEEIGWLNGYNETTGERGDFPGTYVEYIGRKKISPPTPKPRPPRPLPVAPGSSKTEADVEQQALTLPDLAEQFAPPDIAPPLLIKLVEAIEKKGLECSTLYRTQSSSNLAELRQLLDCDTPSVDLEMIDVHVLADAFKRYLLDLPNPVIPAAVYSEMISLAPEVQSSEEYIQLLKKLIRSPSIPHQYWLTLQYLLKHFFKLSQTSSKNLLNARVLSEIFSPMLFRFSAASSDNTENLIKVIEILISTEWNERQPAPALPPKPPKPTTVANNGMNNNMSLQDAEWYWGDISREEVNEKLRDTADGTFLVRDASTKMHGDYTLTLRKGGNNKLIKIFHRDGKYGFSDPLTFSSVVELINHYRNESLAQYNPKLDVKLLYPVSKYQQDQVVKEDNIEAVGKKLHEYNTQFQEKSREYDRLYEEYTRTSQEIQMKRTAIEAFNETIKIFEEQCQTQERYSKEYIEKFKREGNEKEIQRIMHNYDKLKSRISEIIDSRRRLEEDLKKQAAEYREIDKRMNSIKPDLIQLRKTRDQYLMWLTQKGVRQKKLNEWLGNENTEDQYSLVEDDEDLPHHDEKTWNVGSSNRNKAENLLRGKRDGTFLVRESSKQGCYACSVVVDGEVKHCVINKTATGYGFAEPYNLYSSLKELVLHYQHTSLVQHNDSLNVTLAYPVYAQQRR

The target in a further test is T3, PI3Kδ^WT (Homo sapiens, UniProt O00329).
T3 construct: made in house; host or cells: Sf9 insect cells (baculovirus)
Put plainly: BLI membrane binding assay (immobilised liposomes). The following applies: 4 µM inhibitor, 1 µM enzyme, +pY, 300 s. The procedure:
(§2) Figure 6. […] The data are shown as Mean ± SD; PI3Kα^WT +pY n = 7; PI3Kα^WT +pY + GSK n = 5; PI3Kα^WT −pY n = 4; PI3Kα^WT −pY + GSK n = 3. (B) Effect of GSK on the BLI wavelength shift (λ) on membrane binding by PI3Kα^WT, the PI3Kα^E545K oncogenic mutant, class IA PI3Kβ^WT and class IA PI3Kδ^WT enzymes. In all experiments inhibitors were tested at 4 µM with 1 µM of the different enzymes and membrane binding was followed by BLI for 300 s.
as §1

The target in a further test is T4, PI3Kβ^WT (Homo sapiens, UniProt P42338).
T4 construct: made in house; host or cells: Sf9 insect cells (baculovirus)
The test is described as follows: BLI membrane binding assay (immobilised liposomes). The following applies: 4 µM inhibitor, 1 µM enzyme, +pY, 300 s. The procedure:
as §2, §1

A further test concerns the target PI3Kα^E545K (Homo sapiens, UniProt P42336, E545K). The test is described as follows: BLI membrane binding assay (immobilised liposomes). The following applies: 4 µM inhibitor, 1 µM enzyme, +pY, 300 s. The procedure:
as §2, §1

Test [3] concerns the target T2, PI3Kα^WT. The test is described as follows: FRET membrane binding assay (dansyl-PS liposomes). The following applies: P1pY-activated 0.5 μM PI3Kα^WT; inhibitor 31.25 nM to 2 μM.
Target sequence in this assay (P42336 whole entry): as the sequence (P42336 whole entry) above
Target sequence in this assay (P27986 whole entry partner): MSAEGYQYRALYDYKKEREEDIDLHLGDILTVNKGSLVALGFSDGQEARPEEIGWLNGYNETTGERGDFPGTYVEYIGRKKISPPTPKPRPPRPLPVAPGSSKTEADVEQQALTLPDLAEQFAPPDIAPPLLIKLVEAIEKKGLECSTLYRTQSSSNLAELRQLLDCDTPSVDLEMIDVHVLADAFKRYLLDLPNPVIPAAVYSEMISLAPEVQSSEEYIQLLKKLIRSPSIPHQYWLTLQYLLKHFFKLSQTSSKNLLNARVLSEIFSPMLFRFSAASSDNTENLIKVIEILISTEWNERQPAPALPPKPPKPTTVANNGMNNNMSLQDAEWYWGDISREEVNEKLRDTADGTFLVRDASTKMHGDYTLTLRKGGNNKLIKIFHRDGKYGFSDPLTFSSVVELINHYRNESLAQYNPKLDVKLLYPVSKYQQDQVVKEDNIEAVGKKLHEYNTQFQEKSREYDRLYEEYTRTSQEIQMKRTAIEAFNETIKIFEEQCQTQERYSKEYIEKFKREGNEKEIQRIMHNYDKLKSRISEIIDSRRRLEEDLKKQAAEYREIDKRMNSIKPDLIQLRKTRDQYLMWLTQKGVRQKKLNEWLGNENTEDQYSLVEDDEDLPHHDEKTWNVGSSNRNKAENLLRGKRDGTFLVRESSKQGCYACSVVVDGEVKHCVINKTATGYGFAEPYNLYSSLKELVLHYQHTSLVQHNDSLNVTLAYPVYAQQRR
Protocol: The FRET-based assay directly monitors the interaction by measuring energy transfer from tryptophan residues in PI3Kα to dansyl-labelled phosphatidylserine (PS) lipids embedded within the synthetic membrane.
Liposomes were prepared with PIP2: phosphatidylserine (PS): phosphatidlyethanol (PE): phosphatidylcholine (PC): Cholesterol (C): Sphingomyelin (S): Dansyl PS (Avanti polar lipids) in the percentage of 5: 20: 35: 15: 10: 5: 10. Inhibitors were solubilised in 100% DMSO, and were diluted to 10% DMSO with Buffer C (30 mM HEPES pH 7.5, 50 mM NaCl), before being serially diluted to desired concentrations in 30 mM HEPES pH 7.5, 50 mM NaCl with 10% DMSO. […] Compounds were used at 5-fold the final concentration and 2 μl was added to 5 μl of enzyme in a 384-well plate, the plate was sealed and the mixture was allowed to equilibrate at room temperature for 10 min with shaking at 450 rpm. Liposomes were then added to the mixture to give a final liposome concentration of 50 μg/ml and a final reaction volume of 10 μl, and the plate was incubated at room temperature for 10 min with shaking at 450 rpm. […] The FRET signal was measured as I-I0 (intensity at 520 nm for protein and liposome solution — intensity at 520 nm for liposome only solution). […] The compound only I-I0 was then subtracted from the I-I0 of the protein-compound complex. […] Data were then graphed and analysed with GraphPad Prism 6.
The target in the next test is PI3Kα G118D mutant (Homo sapiens, UniProt P42336, G118D). Put plainly: BLI membrane binding assay, concentration response. The conditions noted are these: P2pY activated; protein to GSK2126458 ratio 1:4. The procedure: as §1, with “6. […]” for “6.”
(§3) membrane binding parameters. (A) Concentration response curves for PI3Kα oncogenic mutant proteins. Data is shown as the Mean ± SEM (number of biosensors for each data point is n≥3). A one site-specific binding model was used to fit the data. The […]
(§4) (1 picture or pasted object on this page, not shown here)

Another test deals with PI3Kα G106V mutant (Homo sapiens, UniProt P42336, G106V). Put plainly: BLI membrane binding assay, concentration response. The following applies: P2pY activated; protein to GSK2126458 ratio 1:4. The procedure: as §1, with “6. […]” for “6.”
as §3, §4

A further test concerns the target PI3Kα N345K mutant (Homo sapiens, UniProt P42336, N345K). The test is described as follows: BLI membrane binding assay, concentration response. The following applies: P2pY activated; protein to GSK2126458 ratio 1:4. The procedure:
as §1, with “6. […]” for “6.”
as §3, §4

In a further test the target is PI3Kα C420R mutant (Homo sapiens, UniProt P42336, C420R). Put plainly: BLI membrane binding assay, concentration response. The following applies: P2pY activated; protein to GSK2126458 ratio 1:4. The procedure:
as §1, with “6. […]” for “6.”
as §3, §4

The next test concerns the target PI3Kα M1043I mutant (Homo sapiens, UniProt P42336, M1043I). Put plainly: BLI membrane binding assay, concentration response. The following applies: P2pY activated; protein to GSK2126458 ratio 1:4. The procedure: as §1, with “6. […]” for “6.”
as §3, §4

The target in another test is PI3Kα G1049R mutant (Homo sapiens, UniProt P42336, G1049R). The test is described as follows: BLI membrane binding assay, concentration response. The conditions noted are these: P2pY activated; protein to GSK2126458 ratio 1:4. The procedure: as §1, with “6. […]” for “6.”
as §3, §4

In a further test the target is T5, PI3Kα^H1047R (Homo sapiens, UniProt P42336, H1047R).
T5 construct: Full length PI3Kα^WT or PI3Kα^H1047R was diluted with Buffer D; made in house; host or cells: Sf9 insect cells (baculovirus)
The test is described as follows: BLI membrane binding assay (immobilised liposomes). The following applies: pY activated, inhibitor:protein 4:1, Mean ± SEM. The procedure:
as §1

The target of another test is T6, PI3Kα^WT (p110α/p85α) (Homo sapiens, UniProt P42336).
T6 construct: made in house; host or cells: Sf9 insect cells (baculovirus)
Put plainly: PI3K homogenous time-resolved fluorescence (HTRF) lipid kinase IC50 determination. Type of test: biochemical. The conditions noted are these: HTRF assay using PIP2 as substrate; Mean ± SD, n=2; enzyme 40 ng/ml; read-out: IC50 PI3Kα (Table S3). The procedure: (§5) IC50 values were determined using the PI3K homogenous time-resolved fluorescence assay (Merck Millipore, #33-016) following the manufacturer's instructions as previously described. […] Data was graphed and analysed with Graphpad Prism 6, nonlinear regression with log(inhibitor) vs. response and constraints set at 0% and 100%.
as §4
(§6) Enzymes were used at PI3KαWT 40 ng/ml, PI3KβWT as either 400 ng/ml or 300 ng/ml,
(§7) and PI3K δWT was 65 ng/ml. Plates were read on a PHERAStar HTS microplate reader
Background: In TR-FRET formats the signal depends on donor and acceptor labels being close together.

Another test addresses T7, PI3Kβ^WT (p110β/p85α) (Homo sapiens, UniProt P42338).
T7 construct: made in house; host or cells: Sf9 insect cells (baculovirus)
Put plainly: PI3K HTRF lipid kinase IC50 determination. Type of test: biochemical. The procedure:
as §5, §4, §6, §7

The target of the next test is T8, PI3Kδ^WT (p110δ/p85α) (Homo sapiens, UniProt O00329).
T8 construct: made in house; host or cells: Sf9 insect cells (baculovirus)
The test is described as follows: PI3K HTRF lipid kinase IC50 determination. The class given is biochemical. The following applies: HTRF assay using PIP2 as substrate; Mean ± SD, n=2; enzyme 65 ng/ml; read-out: IC50 PI3K (third column of Table S3, probably PI3Kδ). The procedure:
as §5, §4, §6, §7

Test [4] addresses T1, p110γ. The test is described as follows: PI3K HTRF lipid kinase IC50 determination. The following applies: Table S1, this study; a = N=2 individual data shown, b = N=1; read-out: IC50 p110γ WT. The class given is biochemical. The procedure: as §5, §4

Values joined by “and” are separate entries in the source; they are usually repeats but may differ in a detail not shown here. Equal entries are not always repeated. Where two headings read alike, the source gives them in different places.

T5 sequence (P42336 whole entry H1047R): as the sequence (P42336 whole entry) above, with H1047R counted along it
T5 sequence (P27986 whole entry partner): as the sequence (P27986 whole entry partner) above
T1 sequence (P48736 whole entry, species assumed): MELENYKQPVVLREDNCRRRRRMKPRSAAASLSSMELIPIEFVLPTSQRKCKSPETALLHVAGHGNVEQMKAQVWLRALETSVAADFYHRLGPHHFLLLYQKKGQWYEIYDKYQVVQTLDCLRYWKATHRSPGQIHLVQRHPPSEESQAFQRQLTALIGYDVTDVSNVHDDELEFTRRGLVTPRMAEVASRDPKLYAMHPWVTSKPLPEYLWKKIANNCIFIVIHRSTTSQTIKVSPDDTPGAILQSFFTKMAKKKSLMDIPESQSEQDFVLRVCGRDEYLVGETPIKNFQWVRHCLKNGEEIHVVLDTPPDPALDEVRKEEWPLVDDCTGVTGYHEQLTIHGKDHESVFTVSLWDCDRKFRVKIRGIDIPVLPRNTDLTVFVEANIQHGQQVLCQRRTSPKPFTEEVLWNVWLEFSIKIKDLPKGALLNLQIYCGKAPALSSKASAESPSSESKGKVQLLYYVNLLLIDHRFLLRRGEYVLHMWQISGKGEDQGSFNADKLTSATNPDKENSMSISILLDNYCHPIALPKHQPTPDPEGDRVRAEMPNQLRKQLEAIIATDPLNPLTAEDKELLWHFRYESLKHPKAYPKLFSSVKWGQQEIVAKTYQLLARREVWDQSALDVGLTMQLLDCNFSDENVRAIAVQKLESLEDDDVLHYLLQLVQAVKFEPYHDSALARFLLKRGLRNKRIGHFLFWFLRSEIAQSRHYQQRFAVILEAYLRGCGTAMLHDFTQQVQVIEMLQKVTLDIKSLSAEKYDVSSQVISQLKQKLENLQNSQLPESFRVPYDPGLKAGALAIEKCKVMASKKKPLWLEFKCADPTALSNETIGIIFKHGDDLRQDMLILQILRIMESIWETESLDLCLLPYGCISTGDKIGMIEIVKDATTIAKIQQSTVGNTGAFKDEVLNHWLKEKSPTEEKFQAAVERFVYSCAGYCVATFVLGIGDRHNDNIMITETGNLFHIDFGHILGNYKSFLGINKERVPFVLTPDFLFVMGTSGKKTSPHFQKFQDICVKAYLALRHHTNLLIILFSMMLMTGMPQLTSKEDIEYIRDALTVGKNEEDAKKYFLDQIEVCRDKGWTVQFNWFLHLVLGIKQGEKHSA
T7 sequence (P42338 whole entry, species assumed): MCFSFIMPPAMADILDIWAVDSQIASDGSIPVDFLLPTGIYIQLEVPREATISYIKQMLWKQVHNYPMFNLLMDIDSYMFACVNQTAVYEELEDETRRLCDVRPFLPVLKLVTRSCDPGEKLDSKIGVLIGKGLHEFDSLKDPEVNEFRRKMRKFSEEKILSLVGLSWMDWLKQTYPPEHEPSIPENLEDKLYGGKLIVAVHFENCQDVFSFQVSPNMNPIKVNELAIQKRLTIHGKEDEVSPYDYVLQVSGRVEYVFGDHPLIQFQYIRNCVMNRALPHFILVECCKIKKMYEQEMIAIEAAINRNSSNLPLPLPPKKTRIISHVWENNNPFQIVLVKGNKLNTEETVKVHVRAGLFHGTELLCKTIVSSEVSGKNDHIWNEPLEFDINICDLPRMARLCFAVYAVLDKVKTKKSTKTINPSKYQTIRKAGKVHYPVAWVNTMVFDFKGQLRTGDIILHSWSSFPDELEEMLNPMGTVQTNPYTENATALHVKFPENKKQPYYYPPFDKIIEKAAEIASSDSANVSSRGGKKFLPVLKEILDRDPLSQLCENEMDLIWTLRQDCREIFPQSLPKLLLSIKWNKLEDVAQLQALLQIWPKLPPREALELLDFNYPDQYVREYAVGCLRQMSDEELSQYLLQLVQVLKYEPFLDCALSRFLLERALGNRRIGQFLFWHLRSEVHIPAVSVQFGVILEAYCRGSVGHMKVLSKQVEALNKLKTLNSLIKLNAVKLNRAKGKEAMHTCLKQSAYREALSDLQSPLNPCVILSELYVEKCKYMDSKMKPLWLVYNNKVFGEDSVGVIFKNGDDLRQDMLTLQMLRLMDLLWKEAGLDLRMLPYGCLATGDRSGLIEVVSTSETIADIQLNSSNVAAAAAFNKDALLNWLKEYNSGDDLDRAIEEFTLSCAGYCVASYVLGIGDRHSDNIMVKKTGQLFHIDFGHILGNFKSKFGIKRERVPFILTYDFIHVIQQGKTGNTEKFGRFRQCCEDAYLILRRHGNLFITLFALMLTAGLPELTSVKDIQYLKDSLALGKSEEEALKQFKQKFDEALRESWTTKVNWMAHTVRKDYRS
T7 sequence (P27986 whole entry partner, species assumed): as the sequence (P27986 whole entry partner) above
T6 sequence (P42336 whole entry): as the sequence (P42336 whole entry) above
T6 sequence (P27986 whole entry partner): as the sequence (P27986 whole entry partner) above
Sequence of PI3Kα^E545K (P42336 whole entry E545K): as the sequence (P42336 whole entry) above, with E545K counted along it
Sequence of PI3Kα^E545K (P27986 whole entry partner): as the sequence (P27986 whole entry partner) above

For the compound `Cc1ccc([N+](=O)[O-])cc1S(=O)(=O)N(C)/N=C/c1cnc2ccc(Br)cn12` [PIK-75], the IC50 (usually the concentration needed to halve the response being measured) on p110γ [1] is 43 ± 21 nM.

`O=C1NC(=O)/C(=C/c2ccc(-c3ccc(F)cc3O)o2)S1` [AS252424]: the “effect on P2pY-activated PI3Kα^WT membrane interaction (BLI wavelength shift)” value (“effect … (BLI wavelength shift)” for short) at PI3Kα^WT [2] was “some evidence of positive modulation”.

For `COc1ncc(-c2ccc3nccc(-c4ccnnc4)c3c2)cc1NS(=O)(=O)c1ccc(F)cc1F` [GSK2126458], the “effect on PI3Kδ^WT membrane interaction (BLI)” value on PI3Kδ^WT is reported as “insensitive to GSK2126458”. The “effect on PI3Kβ^WT membrane interaction (BLI)” value on PI3Kβ^WT is listed as “insensitive to GSK2126458”. Further, the “effect on PI3Kα^E545K membrane interaction (BLI)” value at PI3Kα^E545K was “insensitive to regulation by GSK2126458”. Further, the “maximum reduction in FRET signal” value on PI3Kα^WT [3] worked out at 85%. For the same compound, the “effect on G118D membrane interaction (BLI)” value at PI3Kα G118D mutant is “changes in both capacity and affinity”. Moreover, at PI3Kα G106V mutant, the “effect on G106V membrane interaction capacity (BLI)” value was “largest decrease in capacity of all those tested”. Moreover, at PI3Kα N345K mutant, the “effect on N345K membrane interaction (BLI)” value is reported as “sensitive to GSK2126458, with effects on the membrane interaction capacity”. Further, the “effect on C420R membrane interaction (BLI)” value on PI3Kα C420R mutant is given as “sensitive to GSK2126458, with effects on the membrane interaction capacity”. Further, the “effect on M1043I membrane interaction capacity (BLI)” value on PI3Kα M1043I mutant is “also sensitive to GSK2126458”. The “effect on G1049R membrane interaction capacity (BLI)” value on PI3Kα G1049R mutant is recorded as “also sensitive to GSK2126458”. Moreover, the “Bmax (binding capacity) of PI3Kα^WT membrane interaction in presence of inhibitor” value is recorded as 1.5 ± 0.1 λ nm at PI3Kα^WT [2] (liposomes 0% PIP2 + 20% PS) and 1.9 ± 0.1 λ nm on PI3Kα^WT [2] (liposomes 5% PIP2 + 20% PS). Also, the “Bmax (binding capacity) of PI3Kα^H1047R membrane interaction in presence of inhibitor” value at PI3Kα^H1047R (liposomes 0% PIP2 + 20% PS) is 4.3 ± 0.3 λ nm; on PI3Kα^H1047R (liposomes 5% PIP2 + 0% PS), 4.6 ± 0.3 λ nm; at PI3Kα^H1047R (liposomes 5% PIP2 + 20% PS), 5.0 ± 0.2 λ nm.

On to `COc1ncc(-c2ccc3cccc(-c4ccnnc4)c3c2)cc1NS(=O)(=O)c1ccc(F)cc1F` [compound 6], for which the 50% inhibitory concentration (IC50) at PI3Kα^WT (p110α/p85α) came out at 460 ± 170 nM.

Turning to `FC(F)c1nc2ccccc2n1-c1nc(N2CCOCC2)nc(N2CCOCC2)n1` [ZSTK474, 2-(difluoromethyl)-1-[4,6-di(4-morpholinyl)-1,3,5-triazin-2-yl]-1H-benzimidazole], the “maximum reduction in FRET signal” value at PI3Kα^WT [3] is listed as 50%.

For the compound `COc1ncc(-c2ccc(-c3cnc4c(c3)CN(C)C4=O)s2)cc1NS(=O)(=O)c1ccc(F)cc1F` [compound 7], the IC50 at PI3Kβ^WT (p110β/p85α) (HTRF assay using PIP2 as substrate, Mean ± SD, n=2, enzyme 400 or 300 ng/ml, read-out: IC50 PI3K (second column of Table S3, probably PI3Kβ)) worked out at 242000 ± 308000 nM; on PI3Kδ^WT (p110δ/p85α) it was 8600 ± 2100 nM; on PI3Kα^WT (p110α/p85α), 16800 ± 9100 nM. The “effect … (BLI wavelength shift)” value on PI3Kα^WT [2] is reported as “retained the ability to decrease”.

As for `Nc1ncnc2c1ncn2[C@@H]1O[C@H](COP(=O)(O)OP(=O)(O)NP(=O)(O)O)[C@@H](O)[C@H]1O` [AMP-PNP], the “effect … (BLI wavelength shift)” value at PI3Kα^WT [2] is “could promote the enzymes membrane interaction”.

Turning to `Cc1nc(-c2cn3c(n2)-c2ccc(-c4cnn(C(C)(C)C(N)=O)c4)cc2OCC3)n(C(C)C)n1` [GDC0032], the concentration for half-maximal inhibition (IC50) on p110γ [4] was 4.6 nM and 3.2 nM; at PI3Kβ^WT (p110β/p85α) (Table S1, this study, a = N=2 individual data shown, b = N=1, read-out: IC50 PI3Kβ WT) it was 64 nM and 113 nM.
